# Source: paper PMC4522678, “Adaptation of the human aryl hydrocarbon receptor to sense microbiota-derived indoles” (Scientific Reports, 2015)
# What was measured:
# [1] = molecular target: T1, human aryl hydrocarbon receptor (AHR) (Homo sapiens, UniProt P35869); experiment: gel shift (EMSA) of in vitro translated AHR/ARNT; HepG2 reporter; format: cell-based; set-up: in vitro translated human AHR; with ARNT
# Target sequence in this assay (P35869 11-848): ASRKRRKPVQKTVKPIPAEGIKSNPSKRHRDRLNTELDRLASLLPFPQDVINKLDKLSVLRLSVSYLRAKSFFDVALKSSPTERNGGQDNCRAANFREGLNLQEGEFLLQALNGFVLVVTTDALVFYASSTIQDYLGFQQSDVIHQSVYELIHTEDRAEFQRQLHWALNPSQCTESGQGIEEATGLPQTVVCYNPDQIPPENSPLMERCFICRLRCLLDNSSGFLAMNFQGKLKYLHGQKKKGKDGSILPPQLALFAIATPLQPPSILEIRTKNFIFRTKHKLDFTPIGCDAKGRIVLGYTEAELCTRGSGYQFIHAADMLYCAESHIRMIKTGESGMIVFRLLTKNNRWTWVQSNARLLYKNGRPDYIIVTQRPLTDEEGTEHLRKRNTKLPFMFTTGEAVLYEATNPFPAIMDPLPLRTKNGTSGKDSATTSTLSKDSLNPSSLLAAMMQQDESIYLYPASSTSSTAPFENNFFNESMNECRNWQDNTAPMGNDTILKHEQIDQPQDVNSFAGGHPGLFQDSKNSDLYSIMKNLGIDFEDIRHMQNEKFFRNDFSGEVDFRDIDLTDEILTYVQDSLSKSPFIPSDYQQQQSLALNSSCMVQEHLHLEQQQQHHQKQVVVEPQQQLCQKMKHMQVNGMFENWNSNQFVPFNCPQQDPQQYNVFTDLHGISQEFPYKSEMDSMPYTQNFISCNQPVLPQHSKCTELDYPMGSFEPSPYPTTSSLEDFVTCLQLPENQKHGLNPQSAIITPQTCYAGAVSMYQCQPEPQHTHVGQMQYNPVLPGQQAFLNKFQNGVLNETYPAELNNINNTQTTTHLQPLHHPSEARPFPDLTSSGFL
# Target sequence in this assay (P27540 2-789 partner): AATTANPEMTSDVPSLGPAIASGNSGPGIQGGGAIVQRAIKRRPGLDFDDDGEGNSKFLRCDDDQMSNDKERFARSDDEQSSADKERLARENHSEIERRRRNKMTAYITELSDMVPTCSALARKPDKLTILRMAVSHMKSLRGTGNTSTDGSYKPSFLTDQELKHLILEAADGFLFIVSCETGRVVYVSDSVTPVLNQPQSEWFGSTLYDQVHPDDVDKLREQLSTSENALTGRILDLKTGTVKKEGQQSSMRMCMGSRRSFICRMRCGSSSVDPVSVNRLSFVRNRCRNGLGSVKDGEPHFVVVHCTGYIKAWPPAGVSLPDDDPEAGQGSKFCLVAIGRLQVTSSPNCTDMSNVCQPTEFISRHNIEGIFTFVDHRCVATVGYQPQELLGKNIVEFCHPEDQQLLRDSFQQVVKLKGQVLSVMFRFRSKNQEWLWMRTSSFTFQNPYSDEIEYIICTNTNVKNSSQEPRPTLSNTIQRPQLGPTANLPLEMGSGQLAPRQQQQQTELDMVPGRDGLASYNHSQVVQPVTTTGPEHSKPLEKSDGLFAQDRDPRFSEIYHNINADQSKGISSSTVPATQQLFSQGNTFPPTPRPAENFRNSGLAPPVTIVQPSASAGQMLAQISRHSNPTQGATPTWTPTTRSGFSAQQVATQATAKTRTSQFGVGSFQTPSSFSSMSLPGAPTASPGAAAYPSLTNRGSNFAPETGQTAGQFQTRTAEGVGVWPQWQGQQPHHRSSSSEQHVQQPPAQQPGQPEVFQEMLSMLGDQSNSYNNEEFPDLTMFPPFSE
# chimpanzee AHR [2] = molecular target: T2, chimpanzee AHR (Pan troglodytes, UniProt K7AJA4); experiment: gel shift (EMSA) of in vitro translated AHR/ARNT, […] TCDD; format: cell-based
# T2 construct: in vitro translated chimpanzee AHR; with ARNT
# T2 sequence (K7AJA4 1-850): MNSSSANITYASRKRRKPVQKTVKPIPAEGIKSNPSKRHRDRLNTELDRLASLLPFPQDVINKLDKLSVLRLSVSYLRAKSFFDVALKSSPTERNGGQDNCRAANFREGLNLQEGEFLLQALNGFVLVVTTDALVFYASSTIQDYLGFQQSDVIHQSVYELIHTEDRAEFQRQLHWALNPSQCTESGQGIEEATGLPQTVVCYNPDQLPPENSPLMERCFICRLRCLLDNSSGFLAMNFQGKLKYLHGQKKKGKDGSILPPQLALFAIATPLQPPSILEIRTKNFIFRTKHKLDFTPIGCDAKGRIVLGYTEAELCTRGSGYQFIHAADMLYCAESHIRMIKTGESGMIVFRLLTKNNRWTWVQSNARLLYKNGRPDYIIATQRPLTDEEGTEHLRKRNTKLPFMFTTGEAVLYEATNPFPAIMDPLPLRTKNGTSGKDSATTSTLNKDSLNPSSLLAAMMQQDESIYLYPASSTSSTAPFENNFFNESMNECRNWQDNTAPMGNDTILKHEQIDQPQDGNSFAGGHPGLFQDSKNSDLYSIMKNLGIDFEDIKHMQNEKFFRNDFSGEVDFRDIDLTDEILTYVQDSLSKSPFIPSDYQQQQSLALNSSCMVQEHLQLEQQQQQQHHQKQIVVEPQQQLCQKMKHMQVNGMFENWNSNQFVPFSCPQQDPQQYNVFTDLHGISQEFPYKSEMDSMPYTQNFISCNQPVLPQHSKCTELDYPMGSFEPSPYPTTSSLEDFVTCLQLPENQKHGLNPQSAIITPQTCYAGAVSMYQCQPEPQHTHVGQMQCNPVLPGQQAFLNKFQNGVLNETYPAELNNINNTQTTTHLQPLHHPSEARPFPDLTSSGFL
# chimpanzee AHR [3] = molecular target: T2, chimpanzee AHR; experiment: gel shift (EMSA) of in vitro translated AHR/ARNT, […] indole; format: cell-based
# [4] = molecular target: T1, human aryl hydrocarbon receptor (AHR); experiment: competition with radioiodinated photoaffinity ligand in hAHR liver cytosol; also gel shift with in vitro translated hAHR/ARNT; set-up: human AHR transgene expressed in mouse liver (hepatic cytosol)
# Target sequence in this assay (P35869 11-848): as the sequence (P35869 11-848) above
structure (smiles),measurement,setting,value
"Cc1c[nH]c2ccccc12 [3-MI, 3-methyl indole]",gel shift (EMSA) of in vitro translated AHR/ARNT; HepG2 reporter,[1],"3-methyl indole, like indole was associated with enhanced binding of AHR/ARNT to its cognate response element"
Clc1cc2c(cc1Cl)Oc1cc(Cl)c(Cl)cc1O2 [TCDD],"gel shift (EMSA) of in vitro translated AHR/ARNT, 10 nM TCDD",chimpanzee AHR [2],revealed chimpanzee AHR to be sensitive to both TCDD and indole-mediated activation
c1ccc2[nH]ccc2c1 [indole],"gel shift (EMSA) of in vitro translated AHR/ARNT, 20 μM indole",chimpanzee AHR [3],revealed chimpanzee AHR to be sensitive to both TCDD and indole-mediated activation
same,competition with radioiodinated photoaffinity ligand in hAHR liver cytosol; also,[4],dose-dependent decrease in PAL binding consistent with indole being a competitor and direct ligand for the human AHR
